Reference: article PMC9781983, “Identification of Darunavir Derivatives for Inhibition of SARS-CoV-2 3CL^pro” (International Journal of Molecular Sciences, 2022)
Read-outs that look alike come from different tables or passages of the source.

What was measured:
SARS-CoV-2 3CL^pro [1] = molecular target: T1, SARS-CoV-2 3CL^pro (Severe acute respiratory syndrome coronavirus 2, UniProt P0DTD1); assay: biochemical; assay type: biochemical; settings: for IC50: FRET dose-response, 100 nM 3CL^pro pre-incubated 30 min at 30 °C, 10 µM substrate, read-out: IC50 against SARS-CoV-2 3CL^pro
Cathepsin L = Cathepsin L (Homo sapiens, UniProt P07711); assay: Counter screen against Cathepsin L; assay type: biochemical; settings: dose-response, Figure S1
Chain of Cathepsin L (P07711 114-333): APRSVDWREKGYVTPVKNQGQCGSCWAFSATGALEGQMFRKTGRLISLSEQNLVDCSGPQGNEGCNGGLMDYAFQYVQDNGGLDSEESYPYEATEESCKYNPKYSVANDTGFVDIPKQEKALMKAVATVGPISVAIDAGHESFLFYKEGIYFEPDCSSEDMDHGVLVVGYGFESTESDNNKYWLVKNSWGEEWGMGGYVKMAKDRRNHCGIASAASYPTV

SARS-CoV-2 3CL^pro [2] = molecular target: T1, SARS-CoV-2 3CL^pro; assay: Bio-layer interferometry (BLI) kinetic binding assay; settings: for Binding to SARS-CoV-2 3CL^pro: 6.25 to 100 or 200 µM; for koff: read-out: Kdis
[3] = molecular target: Norovirus RNA-dependent RNA polymerase (RdRp) (Norovirus, UniProt Q83883); assay: BLI binding assay, non-specific binding control; settings: Figure S2
Chain of Norovirus RNA-dependent RNA polymerase (RdRp) (Q83883 1282-1789): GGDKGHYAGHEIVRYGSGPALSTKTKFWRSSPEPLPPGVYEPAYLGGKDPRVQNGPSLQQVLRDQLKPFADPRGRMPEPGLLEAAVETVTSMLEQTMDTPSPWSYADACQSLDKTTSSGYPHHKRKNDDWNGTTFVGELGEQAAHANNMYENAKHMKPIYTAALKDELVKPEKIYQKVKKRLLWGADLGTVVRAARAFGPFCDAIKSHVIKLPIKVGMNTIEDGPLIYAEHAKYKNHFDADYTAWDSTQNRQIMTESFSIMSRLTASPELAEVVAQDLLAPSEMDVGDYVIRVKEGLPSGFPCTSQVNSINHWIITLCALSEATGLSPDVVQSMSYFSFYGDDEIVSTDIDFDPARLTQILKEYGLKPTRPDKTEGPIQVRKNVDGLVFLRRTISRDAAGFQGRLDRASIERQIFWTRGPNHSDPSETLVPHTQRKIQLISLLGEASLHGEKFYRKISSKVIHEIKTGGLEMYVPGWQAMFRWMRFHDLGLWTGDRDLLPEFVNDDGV

SARS-CoV-2 3CL^pro [4] = molecular target: T1, SARS-CoV-2 3CL^pro; assay: cell-based
in vitro = settings: human
rats = settings: taken orally, ref [7],[34]; cited from earlier work
[5] = single concentration of 20 μM, normalized to DMSO control

| Structure (SMILES) | Hill slope (SARS-CoV-2 3CL^pro [1]; FRET dose-response curve) | IC50 (SARS-CoV-2 3CL^pro [1]) [µM] | Inhibition of 3CL^pro activity in primary screening (SARS-CoV-2 3CL^pro [1]; [5]) | Inhibitory effect against Cathepsin L (Cathepsin L) | Kd (SARS-CoV-2 3CL^pro [2]; BLI) [µM] | Binding to SARS-CoV-2 3CL^pro (SARS-CoV-2 3CL^pro [2]; BLI) | Kd (SARS-CoV-2 3CL^pro [2]; ForteBio Octet System) [µM] | kon (SARS-CoV-2 3CL^pro [2]; ForteBio Octet System) [M⁻¹ s⁻¹] | koff (SARS-CoV-2 3CL^pro [2]; ForteBio Octet System) [s⁻¹] | KD with Norovirus RdRp [3] | EC50 (SARS-CoV-2 3CL^pro [4]) [µM] | CC50 (in vitro) [µM] | Hill slope (SARS-CoV-2 3CL^pro [1]) | Inhibition of 3CL^pro activity in primary screening (SARS-CoV-2 3CL^pro [1]) | median lethal dose (rats) [mg/kg] |
| --- | --- | --- | --- | --- | --- | --- | --- | --- | --- | --- | --- | --- | --- | --- | --- |
| COc1ccc(S(=O)(=O)N(CC(C)O)CC(O)C(Cc2ccccc2)NC(=O)C2(O)CC(O)C(O)C(OC(=O)C=Cc3ccc(O)c(O)c3)C2)cc1 (stereo not drawn) [50#] | 1.93±0.30 | 3.5 | significant inhibition | very limited inhibitory effect | 62 | dose-dependent manner | 62.1 | 455 | 0.0282 | either a large KD value or a not-detected KD value | 13.5 | 49 | – | – | – |
| COc1ccc(S(=O)(=O)N(CC(C)O)CC(O)C(Cc2ccccc2)NC(=O)c2ccc(O)c(O)c2)cc1 (stereo not drawn) [29#] | 1.78±0.32 | 6.3 | significant inhibition | very limited inhibitory effect | – | dose-dependent manner | 52.7 | 374 | 0.0197 | either a large KD value or a not-detected KD value | 8.9 | 24.8 | – | – | – |
| CC(C)CN(C[C@@H](O)[C@H](Cc1ccccc1)NC(=O)O[C@H]1CO[C@H]2OCC[C@H]21)S(=O)(=O)c1ccc(N)cc1 [Darunavir] | – | – | no inhibitory activity | – | – | – | – | – | – | – | – | – | – | – | – |
| O=c1c2ccccc2[se]n1-c1ccccc1 [Ebselen, ebselen, reference compound] | – | – | – | – | – | – | – | – | – | – | – | – | 1.91±0.22 | strongly inhibit | > 4600 |
